Measured values published in patent US9192604B2, “Method of administration and treatment” (GlaxoSmithKline Intellectual Property (No. 2) Limited, priority 2011, dated 2015).
Read-outs that look alike come from different tables or passages of the source.

How the values were obtained:
[1] = tested on: merlin negative cell lines; test: Anchorage-independent growth-death assay, merlin negative cell line panel; assay type: cell-based; conditions: Homo sapiens, ALL5; second anchorage-independent assay; all 5 merlin negative cell lines; read-out: gIC50 values
Method: (§1) Five human mesothelioma cell lines and two additional human lung cancer cell lines available from the ATCC were used in these studies. Cells were grown in RPMI1640 media containing 10% FBS, 1% L-glutamine, 1% sodium pyruvate under standard cell culture conditions. The mesothelioma cell lines: NCI-H2052, MSTO-211H, NCI-H28, NCI-H226, NCI-H2452, and additional lung lines: A549 and SW-1573. An additional three mesothelioma cell lines, Mero-41, Mero-82, and Mero-14, were grown under identical conditions.
The cellular response to Compound A was evaluated in an anchorage-independent cell growth assay that quantified the extent of cell growth inhibition and the net change in cell population. The assay was performed in black, clear bottom, untreated 384-well plates (Greiner #781096). […]
(§2) On day 6, the assay was stopped by developing the plates, placing a black sticker on bottom of each plate to block light, adding 25 μL of CTG, and incubating the plates for 20 minutes at room temperature. The plates were scanned using a luminescence protocol on the EnVision (Perkin-Elmer).
Results were expressed as a percent of the T0 value and plotted against the compound concentration. […] The cellular response was determined by fitting the concentration response curves using a 4-parameter curve fit equation and determining the concentration that inhibited growth by 50% (gIC50). […]

Mero-41 cells = test: Anchorage-independent growth-death assay (methylcellulose, CellTiter-Glo, 6 days); assay type: cell-based, human; conditions: second anchorage-independent assay, Mero-41, merlin negative
Method: as §1
(§3) The cellular response to Compound A was evaluated in an anchorage-independent cell growth assay that quantified the extent of cell growth inhibition and the net change in cell population. The assay was performed in black, clear bottom, untreated 384-well plates (Greiner #781096). It is important to use either non-tissue culture treated or Low Attachment plates to prevent cells from adhering to the plate during the assay. In brief, the assay was performed as described below.
(§4) A 1% (weight/volume) stock of methylcellulose solution was prepared by dissolving 5 grams of sterilized methylcellulose (Sigma #M0512) in 495 mL of cell culture medium. Here, RPMI1640 media containing 10% FBS, 1% L-glutamine, 1% sodium pyruvate was added to the cooled methylcellulose that had been placed in a glass container and autoclaved to sterilize. Media can be substituted if the cells require different cell culture medium for growth. The dissolution often took a day with vigorous stirring at 4° C. maintaining sterile conditions.
(§5) Cells were plated into a 384 well plate with assay conditions of 0.65% methylcellulose (final concentration) and 1000 cells per well in a final volume of 48 μL. This was achieved by diluting cells harvested from culture and re-suspended in growth medium (dilute to 2.0833×10^4 cells/mL) with the 1% methylcellulose. The cells were mixed by inversion to distribute evenly, bubbles were dispersed and 48 μL was placed into the well with a positive displacement pipette. The plates were placed in a cell culture incubator containing 5% CO2 at 37° C.
(§6) Serial dilution of compound in DMSO was done in a 384 well plate starting with 20 μL of stock compound solution in the first column and 10 μL of DMSO in the other wells. Ten μL from the compound well was transferred into the DMSO containing well, mixed, and the serial dilution was continued with 10 μL transfers across the plate. Then, 4 μL of this DMSO diluted compound was added into wells of a new 384 well plate containing 105 μL of appropriate growth medium. This ‘compound plate’ was used to dose the assay plates containing cells in methylcellulose.
(§7) To initiate the assay, two μL from each well of the ‘compound plate’ were added to individual wells of the ‘assay plates,’ each well containing the 48 μL of cells in methylcellulose. These assay plates were placed in the cell culture incubator for 6 days. One plate was selected at random and developed with Cell TiterGlo (CTG) at the time of compound addition to represent the time equal zero (T0) plate, i.e. to represent the number of cells at the time of compound addition.
as §2
(§8) Results were expressed as a percent of the T0 value and plotted against the compound concentration. […] The cellular response was determined by fitting the concentration response curves using a 4-parameter curve fit equation and determining the concentration that inhibited growth by 50% (gIC50). The gIC50 value is the midpoint of the growth window (between T0 and growth of DMSO controls). […]

NCI-H2052 cells = test: as above; assay type: cell-based, human; conditions: for IC50: Homo sapiens, read-out: Growth Inhibition gIC50
Method: as §1, §3, §4, §5, §6, §7, §2, §8

Mero-82 cells = test: as above; assay type: cell-based, human; conditions: second anchorage-independent assay, Mero-82, merlin negative
Method: as §1, §3, §4, §5, §6, §7, §2, §8

Mero-14 cells = test: as above; assay type: cell-based, human; conditions: second anchorage-independent assay, Mero-14, merlin negative
Method: as §1, §3, §4, §5, §6, §7, §2, §8

MSTO-211H cells = test: as above; assay type: cell-based, human; conditions: for IC50: Homo sapiens
Method: as §1, §3, §4, §5, §6, §7, §2, §8

NCI-H226 cells = test: as above; assay type: cell-based, human; conditions: second anchorage-independent assay, NCI-H226, merlin negative
Method: as §1, §3, §4, §5, §6, §7, §2, §8

[2] = tested on: patients with mesothelioma; test: Phase I clinical study, anti-tumor activity (RECIST 1.1, Kaplan-Meier PFS) by merlin status; assay type: in vivo, human
Description: A multi-part, Phase I study was designed to determine the maximum tolerated dose (MTD), safety, tolerability, pharmacokinetics (PK), pharmacodynamics (PD), and anti-tumor activity of Compound A in patients with advanced solid tumors. Part 1 of the study identified the MTD using a dose escalation procedure, and is described herein. Parts 2-3 are ongoing. Part 2 further explores the safety and tolerability of Compound A at or below the MTD, and Part 3 evaluates the pharmacodynamics of Compound A at doses at and below the MTD. Part 4 was not opened for patient accrual at the time of this summary and will explore the safety, tolerability, pharmacokinetics and clinical activity of Compound A in patients with recurrent glioblastoma multiforme. Part 5 was not opened for patient accrual at the time of this summary and will explore the pharmacokinetics of Compound A over several weeks of administration. Patients with mesothelioma were eligible to participate, e.g, in Part 1, of the study. Patients with mesothelioma were eligible to participate in Parts 1-3 of the study at the time the data below were collected.
Patients 18 years old with advanced solid tumors with histologically or cytologically confirmed diagnosis of a solid tumor malignancy that was not responsive to accepted standard therapies or for which there is no standard or curative therapy were eligible. All patients provided signed informed consent. […] In Parts 2-3 of the study, patients with tumors reported in the literature to overexpress FAK that are not responsive to accepted standard therapies or for which there were no standard or curative therapies were included. Subjects in Part 3 were also required to have solid tumors amenable to biopsy.
Patients with an active gastrointestinal disease known to interfere with the pharmacokinetics of drugs or prior resection of the small intestine were ineligible. Other exclusion criteria included unresolved toxicity>Grade 1 from previous anticancer therapy except alopecia, QTcF interval>450 msecs in males (470 in females) or congenital long QT syndrome, history of acute coronary syndromes, Class II-IV heart failure as defined by the New York Heart Association, symptomatic or untreated brain metastases, primary malignancy of the central nervous system (in Parts 1-3), nursing females, consumption of dietary substances or prohibited medications as defined in the protocol, or any serious and/or unstable pre-existing medical, psychiatric, or other condition that could interfere with subject safety or obtaining informed consent.
Measurements to evaluate safety included weight, heart rate, blood pressure, temperature, clinical laboratory tests, 12-lead ECG, and neurologic and physical evaluation. Adverse events were assessed throughout the study using the CTCAE v4.0, Common Terminology Criteria for Adverse Events (CTCAE) Version 4.0, US Department of Health and Human Services, National Institutes of Health, National Cancer Institute, May 2009.
Disease assessment was performed at screening and every 6 weeks after the start of dosing. Response was recorded as complete response (CR), partial response (PR), stable disease (SD), or progressive disease (PD) according to the RECIST Version 1.1.
To determine if loss of merlin in the current Phase I mesothelioma population was predictive of response to Compound A, merlin levels were assessed in archival tissue (FFPE) collected at screening by immunohistochemistry (IHC), and the result correlated to clinical endpoint of median progression free survival (PFS).
A custom IHC assay was developed by Mosaic laboratories, Inc, employing a rabbit polyclonal antibody (Santa Cruz Biotechnology, Inc, catalog # SC332) using a dilution of 1:1600. The antibody signal was evaluated by Envision+rabbit HRP (DAKO) detection kit, and the staining intensity (Grade 0-3+) was used to categorize merlin status (merlin positive=wildtype or merlin negative=loss of merlin) of the clinical samples tested. […]

[3] = Homo sapiens, read-out: Growth Inhibition gIC50
[4] = second anchorage-independent assay, NCI-H2052, merlin negative
[5] = mesothelioma patients, 26 with radiologic assessments, RECIST 1.1

CONC(=O)c1ccccc1Nc1cc(Nc2cc(C)nn2C(C)C)ncc1Cl [Compound A, 2-[(5-chloro-2-{[3-methyl-1-(1-methylethyl)-1H-pyrazol-5-yl]amino}-4-pyridinyl)amino]-N-(methyloxy)benzamide] was tested, and the IC50 [1] was under 250 nM, the IC50 (Mero-41 cells; [3]) was 54 nM and the “Net Population Change Ymin-T0” value (Mero-41 cells) was −54%. The IC50 (NCI-H2052 cells; 144 h, initial anchorage-independent assay, NCI-H2052, NF2 mutant, merlin negative, 6 days) was 186 nM, the IC50 (NCI-H2052 cells; [4]) was 236 nM and the “Net Pop. change Ymin-T0” value (NCI-H2052 cells; initial anchorage-independent assay, NCI-H2052, NF2 mutant, 6 days) was −3%. The “Net Population Change Ymin-T0” value (NCI-H2052 cells; [4]) was 7%, the IC50 (Mero-82 cells; [3]) was 59 nM and the “Net Population Change Ymin-T0” value (Mero-82 cells) was −22%. For the same compound, the IC50 (Mero-14 cells; [3]) was 63 nM, the “Net Population Change Ymin-T0” value (Mero-14 cells) was −55% and the IC50 (MSTO-211H cells; 144 h, initial anchorage-independent assay, MSTO-211H, NF2 wild-type, merlin positive, 6 days, read-out: Growth Inhibition gIC50) was 3590 nM. For the same compound, the IC50 (MSTO-211H cells; second anchorage-independent assay, MSTO-211H, merlin positive, read-out: Growth Inhibition gIC50) was 10900 nM, the IC50 (MSTO-211H cells; second anchorage-independent assay, merlin positive cell line (MSTO-211H), read-out: Concentration required for 50% growth inhibition) was about 10000 nM and the “Net Pop. change Ymin-T0” value (MSTO-211H cells; initial anchorage-independent assay, MSTO-211H, NF2 wild-type, 6 days, highest concentration ~30 μM) was 343%. The “Net Population Change Ymin-T0” value (MSTO-211H cells; second anchorage-independent assay, MSTO-211H, merlin positive) was 367%, the IC50 (NCI-H226 cells; [3]) was 196 nM and the “Net Population Change Ymin-T0” value (NCI-H226 cells) was −18%. The “Overall median progression free survival (PFS)” value ([2]; all mesothelioma patients, 95% CI 9.7, 24.1, Kaplan-Meier) was 17.7 weeks, the “Patients with PD as best response to treatment” value [2, 5] was 9 patients and the “Patients with SD as best response to treatment” value [2, 5] was “fourteen”. The “Patients with non-CR/non-PD as best response to treatment” value [2, 5] was “three”, the “PR or CR; minor responses” value ([2]; mesothelioma patients, RECIST 1.1) was “no patients experienced a PR or CR, minor responses in some patients with mesothelioma were seen” and the “Merlin negative patients remaining on study for more than four months” value ([2]; mesothelioma, merlin negative) was “Seven of 14”. For the same compound, the “Median PFS in merlin negative subjects” value ([2]; mesothelioma, merlin negative, n=14, 95% CI 6.0, 29.3) was 24.1 weeks, the “Merlin positive patients remaining on study for more than four months” value ([2]; mesothelioma, merlin positive) was “three of nine” and the “Median PFS in merlin positive subjects” value ([2]; mesothelioma, merlin positive, n=9, 95% CI 7.3, undefined) was 11.4 weeks.
